According to the CheMixHub drug solubility set:

Assay: xn = mol fraction of the nth substance listed, in the solute-free solvent

O=c1cc(CBr)c2ccccc2[nH]1 + CN1CCCC1=O + O
solubility (g/100 g solution)
Settings	278.15 K	283.15 K	288.15 K	293.15 K	298.15 K	303.15 K	308.15 K	313.15 K	318.15 K
x2 = 0.0198	0.0293	0.0392	0.0514	0.0682	0.0873	0.117	0.149	0.189	0.234
x2 = 0.04347	0.107	0.136	0.176	0.223	0.281	0.361	0.442	0.546	0.67
x2 = 0.07228	0.271	0.344	0.428	0.538	0.646	0.804	0.971	1.16	1.41
x2 = 0.1081	0.494	0.611	0.762	0.924	1.12	1.37	1.66	1.97	2.35
x2 = 0.1538	0.764	0.928	1.13	1.36	1.65	1.94	2.3	2.71	3.16
x2 = 0.2143	1.04	1.24	1.5	1.76	2.11	2.47	2.9	3.34	3.89
x2 = 0.2979	1.24	1.48	1.76	2.07	2.46	2.87	3.32	3.82	4.37
x2 = 0.421	1.38	1.62	1.91	2.24	2.57	2.99	3.44	3.93	4.47
x2 = 0.6207	1.42	1.64	1.9	2.19	2.5	2.89	3.26	3.7	4.17

O=C1C=CC(=O)N1c1ccccc1Br + CO + O
solubility (g/100 g solution)
Settings	278.15 K	283.15 K	288.15 K	293.15 K	298.15 K	303.15 K	308.15 K	313.15 K	318.15 K	323.15 K
x2 = 0.05881	0.58	0.746	0.94	1.19	1.47	1.83	2.25	2.74	3.31	4.02
x2 = 0.1233	1.14	1.45	1.86	2.38	2.94	3.7	4.49	5.5	6.69	7.95
x2 = 0.1942	2.04	2.61	3.29	4.1	5.06	6.13	7.47	9.02	10.8	12.7
x2 = 0.2727	3.47	4.29	5.27	6.48	7.79	9.34	11.1	13	15.3	17.7
x2 = 0.3599	4.79	5.85	7.12	8.56	10.2	12	14.3	16.5	19	21.8
x2 = 0.4576	6.01	7.29	8.71	10.5	12.4	14.5	16.9	19.4	22.2	25.4
x2 = 0.5675	7	8.5	10.2	12.2	14.3	16.8	19.5	22.2	25.4	28.6
x2 = 0.6923	7.84	9.53	11.5	13.5	16.1	18.7	21.7	24.7	28.1	31.6
x2 = 0.835	8.75	10.5	12.7	14.9	17.7	20.6	23.8	27.1	30.8	34.6

COC(=O)Nc1nc2ccccc2[nH]1 + CN(C)C=O + O
solubility (g/100 g solution)
Settings	278.15 K	283.15 K	288.15 K	293.15 K	298.15 K	303.15 K	308.15 K	313.15 K	318.15 K
x2 = 0.02669	0.00314	0.0037	0.00435	0.00513	0.00608	0.0069	0.00793	0.00907	0.0104
x2 = 0.05816	0.0129	0.0149	0.017	0.0196	0.0227	0.0252	0.0284	0.0319	0.0358
x2 = 0.09552	0.0278	0.0343	0.0397	0.045	0.0511	0.0563	0.0627	0.0696	0.0773
x2 = 0.1411	0.0542	0.0604	0.0678	0.076	0.0856	0.0938	0.103	0.114	0.126
x2 = 0.1978	0.0795	0.0881	0.098	0.109	0.122	0.133	0.147	0.161	0.175
x2 = 0.2702	0.108	0.12	0.133	0.147	0.163	0.177	0.194	0.211	0.23
x2 = 0.3643	0.144	0.159	0.174	0.192	0.212	0.23	0.25	0.271	0.294
x2 = 0.4967	0.186	0.205	0.223	0.244	0.268	0.29	0.315	0.339	0.365
x2 = 0.6912	0.219	0.24	0.259	0.282	0.308	0.333	0.359	0.387	0.416

CC1=NNC(=O)N(N=Cc2cccnc2)C1 + CN(C)C=O + CC(C)O
solubility (g/100 g solution)
Settings	278.15 K	283.15 K	288.15 K	293.15 K	298.15 K	303.15 K	308.15 K	313.15 K	318.15 K
x2 = 0.1705	0.264	0.304	0.352	0.405	0.466	0.532	0.612	0.697	0.796
x2 = 0.354	0.455	0.512	0.588	0.68	0.777	0.896	1.02	1.15	1.3
x2 = 0.5522	0.614	0.694	0.802	0.91	1.04	1.18	1.33	1.5	1.69
x2 = 0.7668	0.771	0.871	0.998	1.13	1.29	1.47	1.65	1.85	2.1

Nc1cccc2c1CN(C1CCC(=O)NC1=O)C2=O (stereo not drawn) + CC#N + CO
solubility (g/100 g solution)
Settings	273.15 K	278.15 K	283.15 K	288.15 K	293.15 K	298.15 K	303.15 K	308.15 K	313.15 K	318.15 K
x2 = 0.1633	0.557	0.585	0.618	0.646	0.686	0.727	0.771	0.821	0.871	0.922
x2 = 0.3423	0.674	0.696	0.729	0.767	0.805	0.849	0.89	0.935	0.98	1.03
x2 = 0.5394	0.771	0.811	0.855	0.901	0.948	0.997	1.05	1.1	1.16	1.22
x2 = 0.7574	0.653	0.682	0.713	0.752	0.794	0.84	0.89	0.942	0.996	1.05
